Assays:
[1] = target: T1, Atlantic cod androgen receptor alpha (gmAra) LBD (Gadus morhua, UniProt D5FIC7); assay: Luciferase reporter gene assay, gmAra antagonism (antiandrogenic activity), coexposure with 5 nM testosterone; format: cell-based; settings: for effect on testosterone-mediated gmAra activity, result in words: BPs 0.003–50 μM with 5 nM testosterone; for IC50: gmAra IC50, in the presence of 5 nM testosterone (EC20)
T1 sequence (D5FIC7 409-718): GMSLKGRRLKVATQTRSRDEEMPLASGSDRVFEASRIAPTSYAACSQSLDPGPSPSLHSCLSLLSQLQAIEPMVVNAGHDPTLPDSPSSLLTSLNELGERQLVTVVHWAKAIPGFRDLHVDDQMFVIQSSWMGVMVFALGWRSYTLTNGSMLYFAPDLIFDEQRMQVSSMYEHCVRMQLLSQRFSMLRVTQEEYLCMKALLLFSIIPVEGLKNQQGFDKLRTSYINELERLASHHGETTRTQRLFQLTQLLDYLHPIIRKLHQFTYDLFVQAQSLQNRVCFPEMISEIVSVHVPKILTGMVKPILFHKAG
Procedure: (§1) Ligand activation of gmEra and gmAra was studied with a luciferase reporter gene assay in COS-7 cells transiently transfected with the pCMX-GAL4(DBD)-gmEra(LBD) or pCMX-GAL4(DBD)-gmAra(LBD) plasmid by using the TransIT-LT1 reagent (TransIT-LT1 Transfection Reagent, Mirus). Cells were seeded into 96-well plates (5000 cells/well) and incubated for 24 h before cotransfection with the plasmid mixture (100 ng/well). The plasmid mixture contained GAL4-UAS luciferase reporter plasmid (tk-(MH100)x4 luc), the pCMX-GAL4(DBD)-gmEra(LBD) or pCMX-GAL4(DBD)-gmAra(LBD) receptor plasmids (2:1 reporter:receptor plasmid mass ratio), and a plasmid constitutively producing the β-galactosidase enzyme used for normalization of transfection efficiency (pCMV- β-Gal). […] The maximum DMSO/methanol concentrations in the exposure wells were 0.5% (v/v) in DMEM medium without phenol red (Sigma-Aldrich). After exposure, cells were lysed, and luciferase and beta-galactosidase activities were measured as luminescence and absorbance (420 nm) after the addition of luciferin and ONPG substrates, respectively, using an Enspire Multimode plate reader (PerkinElmer, Waltham, Massachusetts, USA).
(§2) The dose–response curves were created using nonlinear regression and the four-parameter logistic fit in Graphpad Prism v.9. *p < 0.05 versus solvent control by ANOVA and Dunnett’s multiple comparison post hoc test.

COS-7 cells = assay: Cytotoxicity toward COS-7 cells (resazurin and CFDA-AM assays); settings: 24 h; for concentration that affected COS-7 cell viability: binary combination with 0.003 μM EE2
Source text: The cytotoxicity of the test compounds toward COS-7 cells was monitored by measuring the metabolic activity and membrane integrity through the conversion of resazurin and 5-carboxyfluorescein diacetate acetoxymethyl ester (CFDA-AM), respectively, as described previously by Pérez-Albaladejo et al.[54] […]
used as a negative control.
Figure S2. Assessing metabolic activity (resazurin) and cell membrane integrity (CFDA-AM) in COS-7 cells after BP exposures. COS-7 cells were exposed to three concentrations of each BP, as well as three concentrations […]
exposed at 37 °C and 5 % CO2 for 24 hours. Cytotoxicity is indicated by a reduction in the fluorescent signal (denoted as % Cell survival) relative to the solvent control (DMSO, dotted line) adjusted to 100 %. A reduction in cell viability exceeding 20 % is generally regarded as cytotoxic (indicated with a red dotted line) (ISO, I. 2009.
10993–5: 2009 Biological evaluation of medical devices—part 5: tests for in vitro cytotoxicity. International Organization for Standardization, Geneva.).
(1 picture or pasted object on this page, not shown here)

[2] = tested on: Er-mediated synthesis of Vtg in Atlantic cod PCLS; assay: Vitellogenin ELISA in media of exposed precision-cut liver slices (PCLS); format: cell-based, Atlantic cod (Gadus morhua); settings: 96 h; for concentration at which maximum Vtg levels were observed: 1, 10, 100 μM tested; for Vtg synthesis in PCLS, result in words: 1, 10, 100 μM bisphenols or 0.1, 1, 10 nM EE2, Vtg in media by ELISA
Procedure: PCLS culturing and exposure assays were performed essentially as described previously,[42],[56] with the modifications described below. Juvenile Atlantic cod were killed by a blow to the head, and the liver was dissected out and placed in a Petri dish containing ice-cold PCLS buffer (122 mM NaCl, 4.8 mM KCl, 1.2 mM MgSO4, 11 mM Na2HPO4, 3.7 mM NaHCO3, […]). The liver was then cut into small tissue blocks (approximately 3 cm long, 2 cm wide, and 1–3 cm high) and kept in ice-cold complete culture medium (L-15 medium supplemented with 10% FBS and 1× antibiotic-antimycotic solution). For slicing, the tissue block was fixed on the specimen plate of a Leica vibrating blade microtome VT1200 (Leica, Wetzlar, Germany) using Loctite Super Glue (Clas Ohlson, Bergen, Norway), and 250 μm thick tissue slices were cut (under ice-cold PCLS buffer) and kept in a Petri dish with ice-cold complete culture medium. Using a sterile razor blade, the tissue slices (2 × 3 cm) were then divided into smaller pieces (approximately 4 × 4 mm) and distributed into a 12-well cell culture plate (Sarstedt, Nümbrecht, Germany), each well containing 6 slices and 2 mL of complete culture medium. The PCLS were preincubated at 10 °C for 2 h before exposure. After preincubation, 1 mL of the medium was removed from each well and replaced by 1 mL of fresh complete culture medium containing 2x the final desired concentration and incubated at 10 °C for 96 h with shaking at 50 rpm. […] At the end of the exposure, slices were collected with tweezers and rinsed briefly in cold PBS. Excess PBS was removed by carefully touching a dry surface of the culture plate with the slice 4 times before measuring the weight in a preweighed cryotube. The slices were then snap-frozen in liquid N2 and stored at −80 °C. The media was also sampled and stored at −80 °C for viability (LDH) assay and vitellogenin ELISA.
Vitellogenin (Vtg) in media collected from exposed PCLS was quantified using the Atlantic Cod Vitellogenin ELISA kit (Biosense Laboratories AS, Bergen, Norway) according to manufacturer’s instructions. Vtg was quantified in 100 μL of undiluted media and normalized to the weight of the liver tissue. Statistical analysis of ELISA data was performed with GraphPad Prism Software version 9 (GraphPad Prism, La Jolla, CA, USA) by using one-way ANOVA followed by Dunnett’s test (for normally distributed data) or Friedman test followed by Dunn’s test (for non-normally distributed data), as described previously for PCLS experiments (Yadetie et al.[42]).
Figure 5 Relative vitellogenin production in Atlantic cod precision-cut liver slices (PCLS) exposed to bisphenols and EE2. PCLS were exposed to 1, 10, and 100 μM bisphenols or 0.1, 1, and 10 nM EE2, for 96 h. EE2 was included as positive control for activation of the gmEra signaling pathway. Levels of induced Vtg in the PCLS media were measured using ELISA (Cod Vitellogenin ELISA kit, Biosense Laboratories AS). The data represents mean ± SEM of fold change (compared to solvent control) of Vtg levels from 4 to 10 fish. n = 8–10 for all bisphenols except for BADGE (n = 4). Asterisks denote significant changes (p < 0.05) compared to solvent control.

[3] = target: T1, Atlantic cod androgen receptor alpha (gmAra) LBD; assay: Luciferase reporter gene assay, gmAra agonism (androgenic activity) in transfected COS-7 cells
Procedure: as §1
Figure 3 Androgenic activity of bisphenols. COS-7 cells were transiently transfected with gmAra LBD and exposed individually to 12 bisphenol analogs at increasing concentrations. […] The dose–response curves were created using nonlinear regression and the four-parameter logistic fit in Graphpad Prism v.9. For comparison, the dose–response curve of BPA (black line) is indicated together with each individual BP tested (red line). *p < 0.05 versus solvent control by one-way ANOVA and Dunnett’s multiple comparison post hoc test.

[4] = target: T2, Atlantic cod estrogen receptor alpha (gmEra) LBD (Gadus morhua, UniProt U5ILH7); assay: Luciferase reporter gene assay, gmEra agonism (estrogenic activity) in transfected COS-7 cells; settings: for gmEra REP50 (relative potency EC50, EC50-bisphenol A/EC50-bisphenol X): relative to BPA
T2 sequence (U5ILH7 170-455): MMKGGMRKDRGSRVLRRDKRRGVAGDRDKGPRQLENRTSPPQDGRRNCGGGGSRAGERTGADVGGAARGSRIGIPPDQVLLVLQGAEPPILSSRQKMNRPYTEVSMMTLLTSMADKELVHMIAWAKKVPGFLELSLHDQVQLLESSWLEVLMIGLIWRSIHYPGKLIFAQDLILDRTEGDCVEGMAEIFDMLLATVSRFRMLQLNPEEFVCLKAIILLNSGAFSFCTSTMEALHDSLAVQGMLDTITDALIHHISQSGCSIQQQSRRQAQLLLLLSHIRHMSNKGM
Procedure: as §1
Luciferase reporter gene assays were established with COS-7 cells transiently producing the LBD of gmEra (Figure S1) for evaluating the estrogenic potential of 12 bisphenols.
COS-7 cells transiently transfected with gmEra-LBD were exposed to EE2 (open circles), BPA (black circles), and 11 different BPA analogs (red squares and as indicated) at increasing concentrations. Responses are presented as mean fold activation in luciferase activity in comparison to solvent-exposed cells ± SEM from three independent experiments with three technical replicates (n = 9). The dose–response curves were created using nonlinear regression and the four parameter logistic fit in Graphpad Prism v.9. For comparison, the dose–response curve of BPA (black line) is indicated together with each individual BP tested (red line). *p < 0.05 versus solvent control by one-way ANOVA and Dunnett’s multiple comparison post hoc test.

[5] = target: T2, Atlantic cod estrogen receptor alpha (gmEra) LBD; assay: Luciferase reporter gene assay, gmEra antagonism (antiestrogenic activity), coexposure with 3 nM EE2; format: cell-based; settings: for antiestrogenic effect on gmEra, result in words: coexposure with EE2 (3 nM, EC20)
Procedure: as §1
To investigate potential antiestrogenic effects, COS-7 cells transiently expressing gmEra LBD were exposed to the 12 bisphenols in binary mixtures with a fixed concentration of EE2 (3 nM, corresponding to EC20) (Figure 2 and Table 1).
as §2

[6] = antiandrogenic reporter assay conditions (with testosterone), highest concentration used
[7] = gmEra EC50, four-parameter logistic fit, 24 h exposure

SMILES | effect on testosterone-mediated gmAra activity, result in words [1] | IC50 [1] [µM] | EC50 [4, 7] [µM] | antiestrogenic effect on gmEra, result in words [5] | Vtg synthesis in PCLS, result in words [2] | further results
CC1CC(C)(C)CC(c2ccc(O)cc2)(c2ccc(O)cc2)C1 (stereo not drawn) [BPTMC] | significantly decrease the testosterone-mediated Ara-activity | 1.75 | – | – | – | cytotoxic concentration in COS-7 cells (COS-7 cells; [6]): 50 µM; concentration that affected COS-7 cell viability (COS-7 cells; highest concentration used): 50 µM; concentration at which maximum Vtg levels were observed [2]: 10 µM
C[C@]12CC[C@H]3[C@@H](CCC4=CC(=O)CC[C@@]43C)[C@@H]1CC[C@@H]2O [T, testosterone, reference compound] | – | – | – | – | – | gmAra Emax ([3]; fold activation in luciferase activity vs solvent control, 24 h exposure, a = plateau not reached): 42.1 fold activation
CC(c1ccc(O)cc1)c1ccc(O)cc1 [BPE] | significantly decrease the testosterone-mediated Ara-activity | 0.46 | 11.7 | no antiestrogenic effects | induced the highest Vtg-levels ex vivo | gmEra REP50 (relative potency EC50, EC50-bisphenol A/EC50-bisphenol X) [4]: 0.2; maximal fold induction ([3]; COS-7, monkey, 24 h, read-out: gmAra Emax): 1.2
Oc1ccc(C(c2ccc(O)cc2)(C(F)(F)F)C(F)(F)F)cc1 [BPAF] | – | – | 0.23 | no antiestrogenic effects | – | cytotoxic concentration in COS-7 cells (COS-7 cells; African green monkey): 50 µM; concentration at which maximum Vtg levels were observed [2]: 10 µM
CC(C)c1cc(C(C)(C)c2ccc(O)c(C(C)C)c2)ccc1O [BPG] | significantly decrease the testosterone-mediated Ara-activity | 0.2 | – | – | able to induce Vtg synthesis in PCLS | cytotoxic concentration in COS-7 cells (COS-7 cells; [6]): 50 µM; concentration that affected COS-7 cell viability (COS-7 cells; highest concentration used): 50 µM
CC(C)C(=O)Nc1ccc([N+](=O)[O-])c(C(F)(F)F)c1 [flutamide, reference compound] | – | ~0.71 | – | – | – | –
C#C[C@]1(O)CC[C@H]2[C@@H]3CCc4cc(O)ccc4[C@H]3CC[C@@]21C [EE2, 17α-Ethynylestradiol, reference compound] | – | – | 0.007 | – | increased Vtg-levels in the media in a dose-dependent manner | maximal fold induction ([4]; COS-7, monkey, 24 h, read-out: gmEra Emax): 80; potency toward gmEra relative to BPA (times more potent) ([4]; EE2 compared with BPA): ~10^3; EC50 ([4]; gmEra EC50, value given in text): 0.0068 µM; gmEra REP50 (relative potency EC50, EC50-bisphenol A/EC50-bisphenol X) [4]: 271
Oc1ccc(C(=C(Cl)Cl)c2ccc(O)cc2)cc1 [BPC2] | – | – | 0.2 | – | – | IC50 [5]: 0.06 µM
Oc1ccc(Cc2ccc(O)cc2)cc1 [BPF] | – | – | 3.8 | no antiestrogenic effects | induced the highest Vtg-levels ex vivo | –
CCC(C)(c1ccc(O)cc1)c1ccc(O)cc1 [BPB] | – | – | 1.6 | no antiestrogenic effects | – | –
O=S(=O)(c1ccc(O)cc1)c1ccc(O)cc1 [BPS] | – | – | 83.3 | no antiestrogenic effects | – | –
Oc1ccc(C2(c3ccc(O)cc3)CCCCC2)cc1 [BPZ] | significantly decrease the testosterone-mediated Ara-activity | 0.88 | – | – | only moderate and not statistically significant | effect on testosterone-mediated gmAra activity at lower concentrations, result in words ([1]; lower concentrations used (3–80 nM) with 5 nM testosterone): significant increases in gmAr activity; cytotoxic concentration in COS-7 cells (COS-7 cells; [6]): 50 µM; concentration that affected COS-7 cell viability (COS-7 cells; highest concentration used): 50 µM; concentration at which maximum Vtg levels were observed [2]: 10 µM
